Assay results published in article PMC12351382, “Fibrinography and thrombography (thrombodynamics-4D) in atrial fibrillation assessment of direct oral anticoagulants in geriatrics patients aged 80 years and older receiving direct oral anticoagulant therapy” (Research and Practice in Thrombosis and Haemostasis, 2025).

How the values were obtained:
[1] = tested on: fibrin clot formation; assay: Thrombodynamics-4D fibrinography in pooled normal plasma (Cryocheck) spiked with DOACs; assay type: biochemical, human; settings: 0 to 1000 nM, mainly at low DOAC concentrations
Procedure: (§1) Frozen pooled normal plasma samples (Cryocheck-Cryopep) were spiked with increasing concentrations of DOACs (0-450 ng/mL), as previously described. […] were kindly provided by Bristol Myers Squibb/Pfizer, Bayer Healthcare, and Boehringer Ingelheim, respectively.
The TD-4D assay was performed centrally using the Thrombodynamics analyzer system (Hemacore, Diapharma) with the TD-4D PLS dedicated kit (Hemacore, Diapharma). The system simultaneously measures spatiotemporal parameters of fibrin clot formation (fibrinography) and TG process (thrombography) in a thin layer of unstirred plasma. Briefly, 120 μL of platelet-poor plasma is added to a microcuvette containing corn trypsin inhibitor to prevent contribution of contact phase activation, then 5 μL of phospholipid solution (manufacturer’s reagent) is added. […] The process of fibrin clot formation is recorded in a time-lapse video-microscopy mode using a dark-field light scattering method. […] Clot growth is detected with red light scattering, while AMC fluorescence is detected with UV. Scattered red light and fluorescence passing through the macro lens are recorded by a charge-coupled device system. […]
(§2) The following fibrinography parameters were recorded (see Supplementary Table 1): (i) lag time (Tlag, minutes); (ii) initial rate of clot growth (Vi, μm/min); (iii) rate of clot growth (V, μm/min); (iv) clot size (CS, μm) measured at 30 minutes; (v) clot density (D, arbitrary units); (vi) time to spontaneous clotting (Tsp, minutes). The following thrombography parameters (at the near-activator area) were recorded (see Supplementary Table 1): (i) Tlag (minutes); (ii) time to thrombin peak (minutes); (iii) maximal thrombin concentration (ie, thrombin peak height, Cmax_ATG, AU/L); (iv) endogenous thrombin potential (ETP_ATG, AU⋅min/L); (v) stationary amplitude of moving peak of thrombin (Ast, AU/L); (vi) rate of thrombin peak propagation (μm/min; see Supplementary Videos 1–3).

[2] = tested on: thrombin generation; assay: Thrombodynamics-4D thrombography in pooled normal plasma (Cryocheck) spiked with DOACs; assay type: biochemical, human
Procedure: as §1
(§3) The TD-4D assay was performed centrally using the Thrombodynamics analyzer system (Hemacore, Diapharma) with the TD-4D PLS dedicated kit (Hemacore, Diapharma). The system simultaneously measures spatiotemporal parameters of fibrin clot formation (fibrinography) and TG process (thrombography) in a thin layer of unstirred plasma. Briefly, 120 μL of platelet-poor plasma is added to a microcuvette containing corn trypsin inhibitor to prevent contribution of contact phase activation, then 5 μL of phospholipid solution (manufacturer’s reagent) is added. After incubation for 15 minutes at 37 °C in the Thrombodynamics device, the mixture is transferred to a second microcuvette containing calcium ions, and then immediately transferred to the measurement cuvette. Finally, the activator insert, whose surface is coated with immobilized tissue factor (100 pmol/m^2), is then transferred to the cuvette. The process of fibrin clot formation is recorded in a time-lapse video-microscopy mode using a dark-field light scattering method. Simultaneously, the system monitors TG by fluorimetry, based on the ability of thrombin to cleave a fluorogenic substrate, 7-amino-4-methylcoumarin (AMC) bound to a short amino acid sequence (Arg-Gly-Gly). The rate of AMC formation is proportional to local thrombin concentration. The microcuvette is maintained at 37 °C and is illuminated with red (625 nm) or ultra-violet (365 nm) light emitting diodes. Clot growth is detected with red light scattering, while AMC fluorescence is detected with UV. Scattered red light and fluorescence passing through the macro lens are recorded by a charge-coupled device system. Images under red and blue light are acquired once per minute. […]
as §2

[3] = tested on: thrombin generation; assay: Thrombodynamics-4D thrombography in plasma samples from ADAGE patients on DOACs; assay type: in vivo, human; settings: for ETP (endogenous thrombin potential, ETP_ATG), median (IQR) / ETP (endogenous thrombin potential, ETP_ATG), range / Thrombin peak height (Cmax_ATG), median (IQR) / Thrombin peak height (Cmax_ATG), range / Thrombography Tlag (Lag_ATG), median (IQR) / Thrombography Tlag (Lag_ATG), range / Time to peak (Tmax_ATG), median (IQR) / Time to peak (Tmax_ATG), range: ADAGE patients, reduced dose (regimens as E1)
Description: (§4) ADAGE is an academic, prospective, observational multicenter study (NCT 02464488; for details, see Foulon-Pinto et al.). We recruited hospitalized patients from the university hospital’s geriatric department (Assistance Publique-Hôpitaux de Paris, Paris, France). […] The DOAC dose regimen was at the discretion of the physician. Exclusion criteria included any acute, unstable comorbid condition or an estimated life expectancy of a few weeks. Sampling (see below) and last DOAC intake times were recorded on a standardized request form. Sampling time points were at the discretion of the physicians over a period of 20 days following inclusion. Time points were classified according to the time elapsed from the last oral intake (T, hours) for patients receiving rivaroxaban. T1 to T4 corresponded to peak time (Tmax), and T20 to T24 corresponded to trough (Tmin). […] Physicians prospectively collected demographic, clinical, and laboratory data (including creatinine clearance [CrCl] calculated with the Cockcroft–Gault formula). The study was approved by the institutionnel Ethics Committee (Comité consultatif de protection des personnes pour la recherche biomédicale–Île-de-France-6–number 15.074bis). All participants gave written informed consent to participate in the study. Only patients for whom remaining plasma aliquots were available were included in the present study.
(§5) Tubes were sent to each centre’s laboratory within 2 hours after sampling and immediately double-centrifuged for 15 minutes at 2000 × g at 15 to 22 °C to obtain platelet-poor plasma. Plasma samples (500 μL aliquots) were stored at −80 °C prior to shipment on dry ice for central analysis (Haematology Laboratory, Hôpital Lariboisière). Plasma samples were thawed for 3 to 5 minutes in a 37 °C water bath just before testing.
as §3, with “minute. The whole analysis lasts 1 hour. The Thrombodynamics software (Hemacore, Diapharma) calculates parameters of spatiotemporal dynamics of fibrin clot formation and TG [40, 46].” for “minute.”

[4] = tested on: fibrin clot formation; assay: Thrombodynamics-4D fibrinography in plasma samples from ADAGE patients on DOACs; assay type: in vivo, human; settings: for CS (clot size at 30 minutes), median (IQR) / CS (clot size at 30 minutes), range / D (clot density), median (IQR) / D (clot density), range / Fibrinography Tlag (lag time), median (IQR) / Fibrinography Tlag (lag time), range / Initial rate of clot growth (Vi), median (IQR) / Initial rate of clot growth (Vi), range / Time to Tsp (spontaneous clotting), median (IQR) / Time to Tsp (spontaneous clotting), range: ADAGE patients, reduced dose (regimens as E1)
Description: as §4, §5
as §3, with “minute. The whole analysis lasts 1 hour. The Thrombodynamics software (Hemacore, Diapharma) calculates parameters of spatiotemporal dynamics of fibrin clot formation and TG [40, 46].” for “minute.”

[5] = Plasma DOAC concentration in ADAGE patients (chromogenic anti-FXa assay for rivaroxaban and apixaban; anti-FIIa Hemoclot assay for dabigatran); assay type: in vivo, human; settings: for DOAC concentration, range: ADAGE patients, reduced dose (regimens as E1)
Description: as §4, §5
Dedicated calibrations and controls were used. The lower limit of quantification was 20 ng/mL for the 3 assays.

[6] = univariate analysis, Tmax, line marked Halving
[7] = univariate analysis, Tmin, line marked Halving
[8] = all ADAGE patient samples, Spearman
[9] = all ADAGE patient samples, any time point and dose

COc1ccc(-n2nc(C(N)=O)c3c2C(=O)N(c2ccc(N4CCCCC4=O)cc2)CC3)cc1 [Apixaban]
Samples in which spontaneous clotting occurred [1]: 14% | Change of Ast (stationary amplitude of thrombin moving peak) with increasing concentrations [2]: decreased | ETP (endogenous thrombin potential, ETP_ATG), median (IQR) ([3]; Tmax (peak)): 1698 (1280-1961) AU⋅min/L | ETP (endogenous thrombin potential, ETP_ATG), range ([3]; Tmax (peak)): 971-3095 AU⋅min/L | Thrombin peak height (Cmax_ATG), median (IQR) ([3]; Tmax (peak)): 309 (240-395) AU/L | Thrombin peak height (Cmax_ATG), range ([3]; Tmax (peak)): 206-507 AU/L | Thrombography Tlag (Lag_ATG), median (IQR) ([3]; Tmax (peak)): 0.3 (0.2-0.6) min | Thrombography Tlag (Lag_ATG), range ([3]; Tmax (peak)): 0.1 to 1.3 min | Time to peak (Tmax_ATG), median (IQR) ([3]; Tmax (peak)): 2.1 (2.1-2.6) min | Time to peak (Tmax_ATG), range ([3]; Tmax (peak)): 1.2 to 4.6 min | ETP (endogenous thrombin potential, ETP_ATG), median (IQR) ([3]; Tmin (trough)): 1711 (1436-1978) AU⋅min/L | ETP (endogenous thrombin potential, ETP_ATG), range ([3]; Tmin (trough)): 924-2958 AU⋅min/L | Thrombin peak height (Cmax_ATG), median (IQR) ([3]; Tmin (trough)): 325 (292-379) AU/L | Thrombin peak height (Cmax_ATG), range ([3]; Tmin (trough)): 158-511 AU/L | Thrombography Tlag (Lag_ATG), median (IQR) ([3]; Tmin (trough)): 0.2 (0.2-0.6) min | Thrombography Tlag (Lag_ATG), range ([3]; Tmin (trough)): 0.1 to 1.0 min | Time to peak (Tmax_ATG), median (IQR) ([3]; Tmin (trough)): 2.1 (2.1-2.1) min | Time to peak (Tmax_ATG), range ([3]; Tmin (trough)): 1.6 to 3.6 min | Change of ETP_ATG with increasing DOAC plasma concentrations ([3]; all ADAGE patient samples): decreased | Effect of DOAC concentration at Tmax (βC.pic) on thrombography peak height (PH) [3, 6]: ≈ 0.07471% | Effect of DOAC concentration at Tmin (βC.res) on thrombography peak height (PH) [3, 7]: ≈ 0.1698% | CS (clot size at 30 minutes), median (IQR) ([4]; Tmax (peak)): 1362 (1317-1698) μm | CS (clot size at 30 minutes), range ([4]; Tmax (peak)): 1134-1857 μm | D (clot density), median (IQR) ([4]; Tmax (peak)): 25,340 (22,600-27,790) a.u. | D (clot density), range ([4]; Tmax (peak)): 14,090-34,880 a.u. | Fibrinography Tlag (lag time), median (IQR) ([4]; Tmax (peak)): 1.3 (1.2-1.4) min | Fibrinography Tlag (lag time), range ([4]; Tmax (peak)): 0.9 to 2.3 min | Initial rate of clot growth (Vi), median (IQR) ([4]; Tmax (peak)): 64.9 (60.9-74.2) μm/min | Initial rate of clot growth (Vi), range ([4]; Tmax (peak)): 56.1- 95.5 μm/min | Time to Tsp (spontaneous clotting), median (IQR) ([4]; Tmax (peak)): 22.9 (12.1-31.1) min | Time to Tsp (spontaneous clotting), range ([4]; Tmax (peak)): 6.8 to 48.2 min | CS (clot size at 30 minutes), median (IQR) ([4]; Tmin (trough)): 1655 (1395-1780) μm | CS (clot size at 30 minutes), range ([4]; Tmin (trough)): 1170-2147 μm | D (clot density), median (IQR) ([4]; Tmin (trough)): 25,470 (21,190-29,910) a.u. | D (clot density), range ([4]; Tmin (trough)): 15,530-37,550 a.u. | Fibrinography Tlag (lag time), median (IQR) ([4]; Tmin (trough)): 1.1 (1.0-1.3) min | Fibrinography Tlag (lag time), range ([4]; Tmin (trough)): 0.7 to 1.8 min | Initial rate of clot growth (Vi), median (IQR) ([4]; Tmin (trough)): 68.3 (64.8-76.2) μm/min | Initial rate of clot growth (Vi), range ([4]; Tmin (trough)): 54.6-88.8 μm/min | Time to Tsp (spontaneous clotting), median (IQR) ([4]; Tmin (trough)): 23.0 (12.8-28.1) min | Time to Tsp (spontaneous clotting), range ([4]; Tmin (trough)): 6.8 to 46.7 min | Change of CS (clot size) with increasing concentrations ([4]; all ADAGE patient samples): decreased | Association of D (clot density) with DOAC concentration [4, 8]: not | Relationship between time to spontaneous clot formation (Tsp) and DOAC levels [4, 8]: no relationship | Effect of DOAC concentration at Tmax (βC.pic) on fibrinography initial velocity of clot formation [4, 6]: ≈ 0.02018% | Effect of DOAC concentration at Tmin (βC.res) on fibrinography initial velocity of clot formation [4, 7]: ≈ 0.04558% | DOAC concentration, range ([5]; Tmax (peak)): 69 to 442 ng/mL | DOAC concentration, range ([5]; Tmin (trough)): 20 to 240 ng/mL | DOAC plasma concentration, lower end of range [5, 9]: < 20 ng/mL | DOAC plasma concentration, upper end of range [5, 9]: 547 ng/mL
